Measurements from patent publication US5624906A, “Oral hygiene compositions comprising heteroatom containing alkyl aldonamide compounds” (Lever Brothers Company, Division of Conopco, Inc., priority 1994, dated 1997).
Read-outs that look alike come from different tables or passages of the source. One block for each compound: values may come before it.

Key:
[1] = Effectiveness in reducing surface tension (surface pressure at CMC); format: physicochemical; conditions: 60 °C
Excerpt: As mentioned before, surface tension reduction depends on the replacement of water molecules at the interface by surfactant molecules, therefore the effectiveness of a surfactant in reducing interfacial surface tension should reflect the saturated concentration of surfactant at the interface relative to that in bulk liquid phase. During this process the surface tension of water steadily decreases as bulk phase surfactant concentration increases. This will continue until the concentration reaches the critical micelle concentration (CMC), above which the surface tension remains nearly unchanged and the interface is saturated with surfactant. The surface tension at the CMC is therefore very close to the minimum interfacial tension or maximum surface pressure that the system can achieve. The surface pressure at this point, IIcmc, is a suitable measure of the effectiveness of a surfactant in reducing surface tension and is given as:
IIcmc =20+2.3nRT(Γmax) log[CMC/C20 ]
n=1 which represents the number of ions whose surface concentration changes with the change in liquid phase surfactant concentration.
CMC/C20 =is the ratio of the critical micelie concentration to the bulk phase surfactant concentration necessary to reduce the surface tension of water by 20 dyn/cm.

[2] = Effectiveness of adsorption (surface excess concentration, Gibbs equation); format: physicochemical
Excerpt: The surface excess concentration at surface saturation (Γmax) is defined as a measure of the effectiveness of surfactant adsorption at the water/air interface and represents the maximum value to which adsorption can be obtained. Effectiveness of adsorption is related to the interfacial area occupied by the surfactant molecule. The smaller the effective cross-sectional area of a surfactant at the interface, the greater its effectiveness of adsorption. The effectiveness of adsorption is an important factor in determining surfactant properties such as detergency, foaming, wetting or emulsification. While not wishing to be bound by theory, it is believed that surfactants that absorb effectively at the interface tend have tightly packed coherent interfacial films and often provide better surfactant benefits than those with loosely packed noncoherent films. The effectiveness of adsorption of C8 /C10 oxypropyl D-gluconamide was determined using the Gibbs equation given as: […]
(∂γ/∂log[Conc])T

[3] = 25 °C; cited from earlier work
[4] = cited from earlier work
[5] = cited from earlier work; remark: listed apart in the source
Krafft point = format: physicochemical; conditions: 0.1% in water
Experimental: The temperature at and above which surfactants begin to form micelles instead of precipitates is referred to as the Krafft point (Tk) and at this temperature the solubility of a surfactant becomes equal to its CMC (numerical value at which micelles are formed).
The Krafft point was measured by preparing 650 ml of a 0.1% or 1.0% dispersion of aldonamide in water by weight. If the surfactant was soluble at room temperature, the solution was slowly cooled to 0° C. […] (less than zero). If it precipitated out of solution, the temperature at which precipitation occurs was taken as the Krafft point.
If the surfactant was insoluble at room temperature, the dispersion was slowly heated until the solution became homogeneous. It was then slowly cooled until precipitation occurred. The temperature at which the surfactant precipitates out of solution upon cooling was taken as the Krafft point.

[6] = Clarity of prototype surfactant compositions (Example 87); format: physicochemical; conditions: room temperature, 6 months
Experimental: The prototype shampoo composition is as follows:
(§1) The above formulations were prepared by admixing the above ingredients in listed order and heating the mixture to about 80° C. with rapid stirring. The mixture was then cooled to about 40° C., placed in a clear jar and stored at room temperature for 6 months.

[7] = Viscosity of sodium lauryl sulfate compositions (Example 88); format: physicochemical; conditions: for Viscosity: 22° C.
Experimental: The prototype surfactant composition is as follows:
as §1
It is well known that the viscosity of a liquid composition comprising of anionic surfactant can be modified by the addition of inorganic salts, such as sodium chloride. However, in the absence of an organic modifier, high levels of salt may be necessary to achieve the required viscosity which may lead to problems of storage at cold temperature or even salting out certain ingredients. In practice, however, the viscosity of a liquid composition is modified by the simultaneous addition of thickener and small amounts of inorganic salt (viscosity cobuilder). The combined effect is greater than either one alone. The viscosity of the above prototype surfactant composition comprising various amounts of heteroatom containing alkyl aldonamide compound is as follows: […]

[8] = Viscosity enhancement of sodium/ammonium lauryl sulfate compositions (formulation Example 86); format: physicochemical; conditions: 4.0% thickener, 2395/22
zein = tested on: zein
Excerpt: The zein solubilization assay was developed to determine the biological effects of surfactants on the skin. The protein is normally in soluble in water, but can be brought into solution by interaction with surfactants. The extent of zein dissolved is related to the irritation potential (M. J. Schwinger, Kolloid-Z. Z. Poly., 233, 848, 1969). The greater the zein solubilization, the greater the irritation potential of that surfactant on the skin.
Thus, a 1% solution of surfactant (30 mls) was added to 1.5 g of zein and stirred at room temperature for 1 hour. Residual zein was collected and dried to constant weight. Differences between starting and residual weights were used to calculate % zein solubilized.

[9] = Surface tension at the water/air interface; format: physicochemical; conditions: 60 °C
Experimental: An important characteristic feature that surfactants have is the tendency for them to absorb at the water/air interface in an oriented manner, thereby altering the interfacial free energy of that surface. The surface free energy per unit area or surface tension (T), is a measure of this work and may be considered as the minimum amount of work required to bring sufficient surfactant molecules to the surface.
The surface tension (t) value of C8 /C10 oxypropyl D-gluconamide was determined and is set forth below: […]

[10] = Efficiency in surface tension reduction (pC20); format: physicochemical; conditions: 60 °C
Excerpt: Since surface tension reduction depends on the replacement of water molecules at the interface by surfactant molecules, the efficiency of a surfactant in reducing interfacial tension should reflect the concentration of surfactant at the interface relative to that in bulk liquid phase. […] This is defined as the negative logarithm of the bulk phase surfactant concentration necessary to reduce the surface tension of water by 20 dyn/cm and is given as:
C(-Δγ=20) =C20 is the bulk phase surfactant concentration necessary to reduce the surface tension of water by 20 dyn/cm.
In general, pC20 values are usually close to the minimum concentration needed to saturate the interface with surfactant molecules.

[11] = Packing parameter / micellar shape; format: physicochemical
Excerpt: A theory of miceliar structure, based upon the geometry of various micelie shapes and the space occupied by the surfactant has been disclosed by J. N. Israelachvili, D. J. Mitchell and B. W. Ninham in the J. Chem. Soc. Faraday Trans. 2, 1525, 72, (1976) which is given as the packing parameter (p).
VT=V(CH3) +(nc -1)V(CH2) and represents the volume occupied by the hydrophobic groups in the miceIlar core at a given temperature.
1c =1.50+1.26 nc Å and represents the length of the hydrophobic group in the core.
am =area per molecule or the cross-sectional area occupied by the hydrophilic group at the interface.

Πcmc (surface pressure) ([1]; estimated by extrapolating a linear line): 36.3 dyn/cm
Γmax (surface excess concentration at surface saturation) ([2]; 60 °C, estimated by extrapolating a linear line): 2.40 × 10^-10 mole/cm^2
Compound: CCCCCCCCCCCCOCCOCCOCCOCCOCCOCCOCCOCCO [Dodecylocta(oxyethylene) Ether]
pC20 [3]: 5.20
Πcmc (surface pressure) ([4]; 25 °C): 37.2 dyn/cm
Πcmc (surface pressure) ([4]; 40 °C): 37.3 dyn/cm
Γmax (surface excess concentration at surface saturation) ([5]; 25 °C): 2.52 × 10^-10 mole/cm^2
Γmax (surface excess concentration at surface saturation) ([5]; 40 °C): 2.46 × 10^-10 mole/cm^2

Krafft Point (0.1%) (Krafft point): 48 °C
Appearance ([6]; 3.0% in […] sodium lauryl sulfate): Clear
Appearance ([6]; 4.0% in […] sodium lauryl sulfate): Clear
Appearance ([6]; 5.0% in […] sodium lauryl sulfate): Clear
Viscosity Increase ([7]; 1.0% thickener): 13 x
Viscosity ([7]; 1.0% thickener): 200 Centipoise
Viscosity Increase ([7]; 2.0% thickener): 27 x
Viscosity ([7]; 2.0% thickener): 400 Centipoise
Viscosity Increase ([7]; 3.0% thickener): 80 x
Viscosity ([7]; 3.0% thickener): 1200 Centipoise
Viscosity Increase ([7]; 4.0% thickener): 148 x
Viscosity ([7]; 4.0% thickener): 2220 Centipoise
Viscosity Increase ([7]; 5.0% thickener): 860 x
Viscosity ([7]; 5.0% thickener): 12900 Centipoise
increase of viscosity from its normal viscosity [8]: 109 times
% Zein Solubilized (zein): 6%
Surface tension γ [9]: 29.2 dyn/cm
pC20 [10]: 4.78
CMC/C20 [1]: 5.7
Πcmc (surface pressure) [1]: 38.5 dyn/cm
slope of a plot of γ versus log[Conc] ([2]; T=333.15 K): -24.57 ergs/cm^2
1a (length of the hydrophobic group in the core) ([11]; T=333.15 K): 17.5 Å
micelles predicted from packing parameter ([11]; aqueous media): cylindrical to lameliar micelles
Compound: C8 /C10 oxypropyl D-gluconamide
